Values after ≈ are worked out from the molar mass of the structure shown. Like-named read-outs stand apart in the source and are kept apart here.
Tests used:
Format in all cases: cell-based
Aureobasidium pullulans [1] = assay: MIC value generation: liquid culture assay on 24 well plates, solo ai; settings: A. pullulans; for EC95: concentration for 95% activity estimated from graph; for MIC: Aureobasidium pullulans, rates 0-100 mg ai/l, mean values of n = 5, read-out: MIC Minimal inhibition concentration
Procedure: (§1) Stachybotrys chartarum, and Aureobasidium pullulans were separately cultivated on PDA media to […] sporulation. Spore suspensions were produced for each fungi.
(§2) Test method used: liquid culture assay on 24 well plates.
(§3) For solo (i.e. single) ai testing the formulated fungicide (100 ul) was filled into the 24 well plates (8 different rates: 100-0.05 mg ai/l final volume as described above) and 100 ul distilled water was added. Afterwards 800 ul of 0.3% PDA media was added to the plate. The spore suspension of the specific fungi was added to this media in advance containing approx. 100.000 spores/ml. The 24 well plates were sealed and incubated at 24° C.
(§4) Dependent on the growth prosperities of each organisms, the evaluation was done after 3 to 6 days, when the surface of the check well was covered with mycelium. The evaluation was performed by assessing the growth of the fungi related to the check growth. The results are expressed as % activity relative to the check (values of 0-100% growth). Afterwards the results were converted in % growth inhibition. EC95 values and also MIC (minimal inhibition concentration) values were derived for each compound.
(§5) For each solo compound a graph was drawn of percentage inhibition against the concentration of the fungicide. From this graph the concentration of the fungicide required to achieve 95% activity was estimated. Also the concentration that gave the minimum inhibition concentration was derived as MIC value.

Stachybotrys chartarum [2] = assay: as above; settings: S. chartarum; for EC95: concentration for 95% activity estimated from graph; for MIC: Stachybotrys chartarum, rates 0-100 mg ai/l, mean values of n = 5, read-out: MIC Minimal inhibition concentration
Procedure: as §1, §2, §3, §4, §5

Aureobasidium pullulans [3] = assay: Synergy testing of 2 way mixtures, liquid culture on 24 well plates (Colby); settings: A. pullulans; for inhibition at 50 µg/mL: CDL 50 mg ai/l; for inhibition at 100 µg/mL: CDL 100 mg ai/l
Procedure: (§6) For synergism testing of the 2 way mixtures 100 ul of each fungicide were filled into the 24 well plates (8 different rates) and 800 ul of 0.3% PDA media containing the spore suspension was added (see above). Different ratios of the 2 fungicide rates were tested at the same time.
(§7) Stachybotrys chartarum and Aureobasidium pullulans were separately cultivated on PDA media to […] sporulation. Spore suspensions were produced for each fungi.
(§8) For the mixtures of different fungicides the synergism was calculated based on the Colby equation, which is described below: […]
(§9) The fungicidal action to be expected, We, for a given combination of two fungicides can be calculated as follows (see COLBY, S. R. “Calculating synergistic and antagonistic response of herbicide combinations”. Weeds 15, pages 20-22; 1967):
(§10) wherein: X=% activity in the case of treatment with the compound of formula I at rate x, in comparison with untreated control (=0%). Y=% activity in the case of treatment with a compound of formula II at rate y, in comparison with untreated control. We=expected activity (% activity in comparison with untreated control) after treatment with the compound of formula I and a compound of formula II at a rate of x+y kg of active ingredient.
(§11) If the activity actually observed is greater than the expected value We, there is a synergistic effect.
(§12) All rates below are expressed as mg ai/l (i.e. ppm).

Stachybotrys chartarum [4] = assay: as above; settings: S. chartarum
Procedure: as §6, §7, §8, §9, §10, §11, §12

[5] = CDL 12.5 mg ai/l, PPZ table, read-out: inh % (CDL alone)
[6] = CCZ table, read-out: inh % (CDL alone)
[7] = DFZ table, read-out: inh % (CDL alone)
[8] = PPZ table, read-out: inh % (CDL alone)
[9] = TBZ table, read-out: inh % (CDL alone)
[10] = PPZ 3.1 mg ai/l, read-out: inh % (PPZ alone)

Question: With `CC(C1CC1)C(O)(Cn1cncn1)c1ccc(Cl)cc1` (stereo not drawn) [CCZ, Cyproconazole] as the compound, how does the EC95 (Aureobasidium pullulans [1]) read?
Answer: 6.5 mg ai/l

Question: And the MIC (Aureobasidium pullulans [1])?
Answer: 12.5 µg/mL (≈ 42.8 µM)

Question: And the EC95 (Stachybotrys chartarum [2])?
Answer: >100 mg ai/l

Question: What about the MIC (Stachybotrys chartarum [2]) of the same compound?
Answer: > 100 µg/mL

Question: What about the inhibition at 1.6 µg/mL (Aureobasidium pullulans [3]; CCZ 1.6 mg ai/l, read-out: inh % (CCZ alone)) of the same compound?
Answer: 70%

Question: And the inhibition at 3.1 µg/mL (Aureobasidium pullulans [3]; CCZ 3.1 mg ai/l, read-out: inh % (CCZ alone))?
Answer: 90%

Question: What about the inhibition at 100 µg/mL (Stachybotrys chartarum [4]; CCZ 100 mg ai/l, read-out: inh % (CCZ alone)) of the same compound?
Answer: 50%

Question: How did the EC95 (Aureobasidium pullulans [1]) turn out when `Cc1cc(C2CC2)nc(Nc2ccccc2)n1` [CDL, Cyprodinil] was run?
Answer: >100 mg ai/l

Question: And the MIC (Aureobasidium pullulans [1])?
Answer: > 100 µg/mL

Question: And the EC95 (Stachybotrys chartarum [2])?
Answer: 46 mg ai/l

Question: What about the MIC (Stachybotrys chartarum [2]) of the same compound?
Answer: 50 µg/mL (≈ 222 µM)

Question: And the inhibition at 0.8 µg/mL (Aureobasidium pullulans [3]; CDL 0.8 mg ai/l, DFZ table, read-out: inh % (CDL alone))?
Answer: 0%

Question: And the inhibition at 1.6 µg/mL (Aureobasidium pullulans [3]; CDL 1.6 mg ai/l, CCZ table, read-out: inh % (CDL alone))?
Answer: 10%

Question: And the inhibition at 1.6 µg/mL (Aureobasidium pullulans [3]; CDL 1.6 mg ai/l, DFZ table, read-out: inh % (CDL alone))?
Answer: 10%

Question: What about the inhibition at 1.6 µg/mL (Aureobasidium pullulans [3]; CDL 1.6 mg ai/l, PPZ table, read-out: inh % (CDL alone)) of the same compound?
Answer: 10%

Question: What about the inhibition at 1.6 µg/mL (Aureobasidium pullulans [3]; CDL 1.6 mg ai/l, TBZ table, read-out: inh % (CDL alone)) of the same compound?
Answer: 10%

Question: And the inhibition at 3.1 µg/mL (Aureobasidium pullulans [3]; CDL 3.1 mg ai/l, DFZ table, read-out: inh % (CDL alone))?
Answer: 10%

Question: What about the inhibition at 3.1 µg/mL (Aureobasidium pullulans [3]; CDL 3.1 mg ai/l, PPZ table, read-out: inh % (CDL alone)) of the same compound?
Answer: 10%

Question: What about the inhibition at 3.1 µg/mL (Aureobasidium pullulans [3]; CDL 3.1 mg ai/l, TBZ table, read-out: inh % (CDL alone)) of the same compound?
Answer: 10%

Question: And the inhibition at 12.5 µg/mL (Aureobasidium pullulans [3]; CDL 12.5 mg ai/l, CCZ table, read-out: inh % (CDL alone))?
Answer: 30%

Question: And the inhibition at 12.5 µg/mL (Aureobasidium pullulans [3]; CDL 12.5 mg ai/l, DFZ table, read-out: inh % (CDL alone))?
Answer: 30%

Question: What about the inhibition at 12.5 µg/mL (Aureobasidium pullulans [3]; [5]) of the same compound?
Answer: 30%

Question: And the inhibition at 12.5 µg/mL (Aureobasidium pullulans [3]; CDL 12.5 mg ai/l, TBZ table, read-out: inh % (CDL alone))?
Answer: 30%

Question: What about the inhibition at 50 µg/mL (Aureobasidium pullulans [3]; [6]) of the same compound?
Answer: 30%

Question: What about the inhibition at 50 µg/mL (Aureobasidium pullulans [3]; [7]) of the same compound?
Answer: 30%

Question: What about the inhibition at 50 µg/mL (Aureobasidium pullulans [3]; [8]) of the same compound?
Answer: 30%

Question: And the inhibition at 50 µg/mL (Aureobasidium pullulans [3]; [9])?
Answer: 50%

Question: What about the inhibition at 100 µg/mL (Aureobasidium pullulans [3]; [6]) of the same compound?
Answer: 30%

Question: And the inhibition at 100 µg/mL (Aureobasidium pullulans [3]; [7])?
Answer: 30%

Question: And the inhibition at 100 µg/mL (Aureobasidium pullulans [3]; [8])?
Answer: 30%

Question: What about the inhibition at 100 µg/mL (Aureobasidium pullulans [3]; [9]) of the same compound?
Answer: 50%

Question: What about the inhibition at 3.1 µg/mL (Stachybotrys chartarum [4]; CDL 3.1 mg ai/l, CCZ table, read-out: inh % (CDL alone)) of the same compound?
Answer: 0%

Question: And the inhibition at 12.5 µg/mL (Stachybotrys chartarum [4]; [5])?
Answer: 70%

Question: With `CC1COC(Cn2cncn2)(c2ccc(Oc3ccc(Cl)cc3)cc2Cl)O1` (stereo not drawn) [DFZ, Difenoconazole] as the compound, how does the EC95 (Aureobasidium pullulans [1]) read?
Answer: 8 mg ai/l

Question: What about the MIC (Aureobasidium pullulans [1]) of the same compound?
Answer: 12.5 µg/mL (≈ 30.8 µM)

Question: What about the EC95 (Stachybotrys chartarum [2]) of the same compound?
Answer: 2.7 mg ai/l

Question: What about the MIC (Stachybotrys chartarum [2]) of the same compound?
Answer: 3.1 µg/mL (≈ 7.63 µM)

Question: What about the inhibition at 0.8 µg/mL (Aureobasidium pullulans [3]; DFZ 0.8 mg ai/l, read-out: inh % (DFZ alone)) of the same compound?
Answer: 90%

Question: And the inhibition at 1.6 µg/mL (Aureobasidium pullulans [3]; DFZ 1.6 mg ai/l, read-out: inh % (DFZ alone))?
Answer: 90%

Question: And the inhibition at 3.1 µg/mL (Aureobasidium pullulans [3]; DFZ 3.1 mg ai/l, read-out: inh % (DFZ alone))?
Answer: 70%

Question: What does the source list for `CCCC1COC(Cn2cncn2)(c2ccc(Cl)cc2Cl)O1` (stereo not drawn) [PPZ, Propiconazole]?
Answer: EC95 (Aureobasidium pullulans [1]): 36 mg ai/l; MIC (Aureobasidium pullulans [1]): 50 µg/mL (≈ 146 µM); EC95 (Stachybotrys chartarum [2]): >100 mg ai/l; MIC (Stachybotrys chartarum [2]): > 100 µg/mL; inhibition at 3.1 µg/mL (Aureobasidium pullulans [3]; [10]): 70%; inhibition at 12.5 µg/mL (Aureobasidium pullulans [3]; PPZ 12.5 mg ai/l, read-out: inh % (PPZ alone)): 70%; inhibition at 0.2 µg/mL (Stachybotrys chartarum [4]; PPZ 0.2 mg ai/l, read-out: inh % (PPZ alone)): 0%; inhibition at 1.6 µg/mL (Stachybotrys chartarum [4]; PPZ 1.6 mg ai/l, read-out: inh % (PPZ alone)): 0%; inhibition at 3.1 µg/mL (Stachybotrys chartarum [4]; [10]): 10%

Question: Which results are given for `c1ccc2[nH]c(-c3cscn3)nc2c1` [TBZ, Thiabendazole]?
Answer: EC95 (Aureobasidium pullulans [1]): 15 mg ai/l; MIC (Aureobasidium pullulans [1]): 50 µg/mL (≈ 248 µM); EC95 (Stachybotrys chartarum [2]): 46 mg ai/l; MIC (Stachybotrys chartarum [2]): 50 µg/mL (≈ 248 µM); inhibition at 12.5 µg/mL (Aureobasidium pullulans [3]; TBZ 12.5 mg ai/l, read-out: inh % (TBZ alone)): 90%

Source: patent US20090221619A1, “NOVEL MATERIALS AND METHODS FOR THE PRODUCTION THEREOF” (SYNGENTA CROP PROTECTION, INC., priority 2005, published 2009)
